Assay [1] has as its target T1, human GLP-1 receptor (Homo sapiens, UniProt P43220).
T1 construct: expressed in transfected cells; host or cells: BHK cells, clone FCW467-12A/KZ10-1 (parent line BHKTS13), further transfected with CRE luciferase
Nature of the assay: In vitro potency (CRE luciferase; whole cells). The format is cell-based. Further details: EC50/pM (ratio 1% HSA/0% HSA): unit not given here. The procedure, abridged:
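Stably transfected BHK cells carrying human GLP-1R and a CRE–firefly luciferase reporter, 5×10^3 cells/well in assay medium, run with 0% or 1% HSA in assay buffer.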

Assay [2] has as its target T1, human GLP-1 receptor. Nature of the assay: GLP-1 receptor binding (SPA, displacement of 125I-GLP-1). The procedure, abridged:
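Membranes from a stably transfected hamster cell line, 5-10 ug protein/sample, with WGA SPA beads and [125I]-GLP-1(7-36)NH2 at 0.06 nM final. Incubated 120 min at 30 °C with shaking, then counted.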

Setting [3] is: Receptor binding affinity IC50 (low HSA), 0.001% HSA (low albumin).

What is called EC50 is the concentration that produces a half-maximal response. Broadly, the IC50 is the concentration at which inhibition is half-maximal.

Numbered stars: 1 amine (or outer) side, 2 acyl side, 3 side chain; on linkers, the order of the positions; unused ones are H or OH. Square brackets hold non-standard residues; d marks the D form. Side chains are listed from the residue outwards. Peptide text beside a SMILES is read from it. * marks the point of attachment. Undecanoyl(11-OPh(4-COOH)) = O=C(O)c1ccc(OCCCCCCCCCCC(=O)*)cc1; γGlu = O=C(O)[C@H](CCC(=O)[*:2])N[*:1]; εLys = N[C@@H](CCCCN[*:1])C(=O)[*:2]; Aib = CC(C)(N)C(=O)O

T1 sequence (P43220 24-463): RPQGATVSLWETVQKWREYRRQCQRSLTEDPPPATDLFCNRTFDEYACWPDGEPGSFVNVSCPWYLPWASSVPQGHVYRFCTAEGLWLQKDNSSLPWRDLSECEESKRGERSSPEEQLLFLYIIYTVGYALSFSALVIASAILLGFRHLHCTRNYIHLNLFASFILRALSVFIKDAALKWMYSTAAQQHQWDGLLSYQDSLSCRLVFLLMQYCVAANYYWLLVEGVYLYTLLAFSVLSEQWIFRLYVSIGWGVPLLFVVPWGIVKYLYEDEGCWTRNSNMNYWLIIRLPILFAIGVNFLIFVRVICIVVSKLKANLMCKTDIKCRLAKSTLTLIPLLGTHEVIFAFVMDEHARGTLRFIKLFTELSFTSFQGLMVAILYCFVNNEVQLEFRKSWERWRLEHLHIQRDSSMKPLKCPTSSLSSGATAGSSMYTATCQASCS

For the compound `CC[C@H](C)[C@H](NC(=O)[C@H](Cc1ccccc1)NC(=O)[C@H](CCC(=O)O)NC(=O)[C@H](CCCCNC(=O)[C@@H](N)CCCCNC(=O)CC[C@H](NC(=O)CC[C@H](NC(=O)CCCCCCCCCCOc1ccc(C(=O)O)cc1)C(=O)O)C(=O)O)NC(=O)[C@H](C)NC(=O)[C@H](C)NC(=O)[C@H](CCC(N)=O)NC(=O)CNC(=O)[C@H](CCC(=O)O)NC(=O)[C@H](CC(C)C)NC(=O)[C@H](Cc1ccc(O)cc1)NC(=O)[C@H](CO)NC(=O)[C@H](CO)NC(=O)[C@@H](NC(=O)[C@H](CC(=O)O)NC(=O)[C@H](CO)NC(=O)[C@@H](NC(=O)[C@H](Cc1ccccc1)NC(=O)[C@@H](NC(=O)CNC(=O)[C@H](CCC(=O)O)NC(=O)C(C)(C)NC(=O)[C@@H](N)Cc1c[nH]cn1)[C@@H](C)O)[C@@H](C)O)C(C)C)C(=O)N[C@@H](C)C(=O)N[C@@H](Cc1c[nH]c2ccccc12)C(=O)N[C@@H](CC(C)C)C(=O)N[C@H](C(=O)N[C@@H](CCCNC(=N)N)C(=O)NCC(=O)N[C@@H](CCCNC(=N)N)C(=O)N[C@@H](CCCCNC(=O)[C@@H](N)CCCCNC(=O)CC[C@H](NC(=O)CC[C@H](NC(=O)CCCCCCCCCCOc1ccc(C(=O)O)cc1)C(=O)O)C(=O)O)C(=O)O)C(C)C` [Example 40, N^ε26-[(2S)-2-amino-6-[[(4S)-4-carboxy-4-[[(4S)-4-carboxy-4-[11-(4-carboxyphenoxy)undecanoylamino]butanoyl]amino]butanoyl]amino]hexanoyl], N^ε37-[(2S)-2-amino-6-[[(4S)-4-carboxy-4-[[(4S)-4-carboxy-4-[11-(4-carboxyphenoxy)undecanoylamino]butanoyl]amino]butanoyl]amino]hexanoyl]-[Aib^8,Arg^34,Lys^37]-GLP-1-(7-37)-peptide], in assay [1] (In vitro potency (CRE luciferase) EC50 (0% HSA), BHK cells, 0% HSA), the EC50 stood at 0.0026 nM. Also, the IC50 was 195 nM in assay [2] (Receptor binding affinity IC50 (high HSA), 2.0% HSA (high albumin)) and 0.03 nM in assay [2] (setting [3]).

As to `CC[C@H](C)[C@H](NC(=O)[C@H](Cc1ccccc1)NC(=O)[C@H](CCC(=O)O)NC(=O)[C@H](CCCCNC(=O)[C@@H](N)CCCCNC(=O)CC[C@H](NC(=O)CC[C@H](NC(=O)CCCCCCCCCCOc1ccc(C(=O)O)cc1)C(=O)O)C(=O)O)NC(=O)[C@H](C)NC(=O)[C@H](C)NC(=O)[C@H](CCC(N)=O)NC(=O)[C@H](CCC(=O)O)NC(=O)[C@H](CCC(=O)O)NC(=O)[C@H](CC(C)C)NC(=O)[C@H](Cc1ccc(O)cc1)NC(=O)[C@H](CO)NC(=O)[C@H](CO)NC(=O)[C@@H](NC(=O)[C@H](CC(=O)O)NC(=O)[C@H](CO)NC(=O)[C@@H](NC(=O)[C@H](Cc1ccccc1)NC(=O)[C@@H](NC(=O)CNC(=O)[C@H](CCC(=O)O)NC(=O)C(C)(C)NC(=O)[C@@H](N)Cc1c[nH]cn1)[C@@H](C)O)[C@@H](C)O)C(C)C)C(=O)N[C@@H](CCC(=O)O)C(=O)N[C@@H](Cc1c[nH]c2ccccc12)C(=O)N[C@@H](CC(C)C)C(=O)N[C@H](C(=O)N[C@@H](CCCNC(=N)N)C(=O)NCC(=O)N[C@@H](CCCNC(=N)N)C(=O)N[C@@H](CCCCNC(=O)[C@@H](N)CCCCNC(=O)CC[C@H](NC(=O)CC[C@H](NC(=O)CCCCCCCCCCOc1ccc(C(=O)O)cc1)C(=O)O)C(=O)O)C(=O)O)C(C)C` [Example 41, N^ε26-[(2S)-2-amino-6-[[(4S)-4-carboxy-4-[[(4S)-4-carboxy-4-[11-(4-carboxyphenoxy)undecanoylamino]butanoyl]amino]butanoyl]amino]hexanoyl], N^ε37-[(2S)-2-amino-6-[[(4S)-4-carboxy-4-[[(4S)-4-carboxy-4-[11-(4-carboxyphenoxy)undecanoylamino]butanoyl]amino]butanoyl]amino]hexanoyl]-[Aib^8,Glu^22,Glu^30,Arg^34, Lys^37]-GLP-1-(7-37)-peptide] (H-H[Aib]EGTFTSDVSSYLEEQAAK([εLys-γGlu-γGlu-Undecanoyl(11-OPh(4-COOH))])EFIEWLVRGRK([εLys-γGlu-γGlu-Undecanoyl(11-OPh(4-COOH))])-OH; N-terminus and C-terminus assumed), the “EC50/pM (ratio 1% HSA/0% HSA)” value in assay [1] (ratio of EC50 at 1% HSA to EC50 at 0% HSA) is 260. In assay [2] (setting [3]), this compound showed an IC50 of 0.03 nM.

(Values after patent US10604554B2, “Double-acylated GLP-1 derivatives” (Novo Nordisk A/S, priority 2012, dated 2020).)
